{"source": "patent US20130072404A1", "about": "“APPARATUS AND PROCESSES FOR GENERATING VARIABLE CONCENTRATION OF SOLUTES IN MICRODROPLETS” (UNIVERSITE DE STRASBOURG, priority 2009, published 2013)", "key": {"β-galactosidase [1]": {"molecular_target": "T1, β-galactosidase (Escherichia coli, UniProt P00722)", "test": "High-resolution dose-response screening of β-galactosidase inhibition in droplets (Example 2), FDG substrate", "type": "biochemical, E. coli", "design": "purchased Grade VIII", "settings": "for IC50: 4-parameter Hill fit", "experimental": "PBS was pumped through the autosampler at a rate of 200 μl/hour. On-chip, this flow was combined with solutions of enzyme and substrate, both flowing at 100 μl/hour. The enzyme solution was 20 U/ml of E. coli Grade VIII β-galactosidase in PBS containing 4 g/l BSA. The substrate solution was 240 μM FDG and 400 nM sodium fluorescein in PBS. The combined aqueous flow was segmented into droplets by the oil/surfactant solution flowing at a rate of 400 μl/hour. The optical setup was positioned just before the delay line and individual droplets were discriminated by green fluorescence. The measurement at this point provided a “pseudo blank” (no enzyme activity, equivalent to 100% inhibition) for the inhibition calculations later on: droplets with zero activity were not observed to change fluorescence between production and any measurement point in the delay line (FIG. 17).\nThe optical setup was repositioned to the 30-second measurement point and the droplets were analyzed continuously. Meanwhile, the autosampler was used to load 1 μl from each well of a 96-well plate into the PBS stream running through the dispersion capillary. Each well contained 20 μl of 100 μM DY-682 in PBS, plus one of four different concentrations of the inhibitor 2-phenylethyl β-D-thiogalactoside (PETG; Invitrogen Corp., California, USA): 600 μM (“high”), 120 μM (“medium”), 24 μM (“low”), or zero. As each Gaussian-like pulse of DY-682 and PETG, mixed with the reaction components and segmented into droplets, arrived at the optical detector, a dose-response profile was recorded.\nOffline, a Python script was used to group the droplets in the front edge of each Gaussian-like pulse by injection (˜10,000 droplets); these droplets are referred to as the injection's “dose-response droplets”. 1 second's worth of droplets directly preceding each Gaussian-like pulse were also stored (˜800 droplets). The mean green fluorescence of these droplets provided the “control” value (0% inhibition) for the injection and this value was used with the pseudo blank value (corresponding to 100% inhibition) to calculate the percentage inhibition in the subsequent dose-response droplets. […] The corrected green signal was then used to calculate the proportion of inhibition (I) in each droplet using the following equation: […]\nwhere M is corrected measured fluorescence, B is the pseudo blank value, and C is the control value. In parallel, the NIR fluorescence signal for each droplet was used to calculate the concentration of co-injected compound. […]\nFor each of the 16 “medium” injections the quality of the assay was determined by calculating the Z-factor (Zhang et al., 1999)."}, "β-galactosidase [2]": {"molecular_target": "T1, β-galactosidase", "test": "Droplet microfluidic IC50 measurement, Taylor dispersion dilution (Example 1c), RBG substrate", "type": "biochemical", "design": "purchased Sigma-Aldrich Co", "settings": "Taylor dispersion pulse, 30 s droplet incubation, 4-parameter log-logistic fit; read-out: IC50 of PETG in the enzyme/substrate/inhibitor system", "description": "In the examples, the model systems comprised an enzyme, a substrate, and an inhibitor for IC50 measurements and an enzyme and substrate alone for KM measurements. In all cases the enzyme was β-galactosidase (Sigma-Aldrich Co.), the substrate was resorufin β-D-galactopyranoside (RBG; Invitrogen Corporation), and the inhibitor was phenylethyl β-D-thiogalactopyranoside (PETG; Invitrogen Corporation).\nA microfluidic emulsion of 90 pl aqueous microdroplets was generated by injecting the microfluidic device (FIG. 2) with an oil phase and three aqueous phases. The oil phase consisted of 1% (w/w) EA surfactant dissolved in HFE-7500 flowing at 680 μl/hr. […]\nThe autosampler was used to introduce a single 1 μl pulse of 120 μM PETG (the inhibitor) to the PBS flowing to the device through the silane-treated capillary. The inclusion of 40 μM of the fluorophore sodium fluorescein with the inhibitor allowed the concentration of PETG to be inferred downstream from the degree of fluorescence observed in the 500-520 nm channel. […]\nThe microdroplets in the initial climb in inhibitor concentration (the leading front of the inhibitor pulse) were plotted in an XY graph with initial reaction rate (inferred from resorufin fluorescence after 30 seconds of droplet incubation) against inhibitor concentration (assumed to be proportional to sodium fluorescein fluorescence). […]"}, "β-galactosidase [3]": {"molecular_target": "T1, β-galactosidase", "design": "purchased Sigma-Aldrich Co", "settings": "Angenendt et al., 2004; read-out: IC50 literature value; cited from earlier work"}}, "note": "Like-named read-outs stand apart in the source and are kept apart here.", "data": [{"smiles": "OC[C@H]1O[C@@H](SCCc2ccccc2)[C@H](O)[C@@H](O)[C@H]1O", "note": "[PETG, phenylethyl β-D-thiogalactopyranoside]", "values": [{"measurement": "inhibition", "setting": "β-galactosidase [1]; droplets containing 50 μM PETG", "result": 97.5, "unit": "%"}, {"measurement": "IC50", "setting": "β-galactosidase [1]; mean IC50, high (600 μM) injected PETG", "result": 1980, "unit": "nM"}, {"measurement": "IC50", "setting": "β-galactosidase [1]; mean IC50, low (24 μM) injected PETG", "result": 1980, "unit": "nM"}, {"measurement": "IC50", "setting": "β-galactosidase [1]; mean IC50, medium (120 μM) injected PETG, n=16", "result": 2060, "unit": "nM"}, {"measurement": "IC50", "setting": "β-galactosidase [2]", "result": 3040, "unit": "nM"}, {"measurement": "IC50", "setting": "β-galactosidase [3]", "result": 3100, "unit": "nM"}]}]}
